Tested on: 966289-007-R4-J1-PDC complex spheroid viability
Test: Anticancer human tumor 966289-007-R4-J1-PDC patient-derived pancreatic adenocarcinoma cell line growth inhibition [RAS]
Conditions: for IC50: curve of first compound; for viability, T/C: stronger effect = lower value
In short: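 Tumour cells grown as complex spheroids with HUVEC endothelial cells and mesenchymal stem cells, treated with RAS pathway inhibitor combinations. Each agent spans half-log steps from near clinical Cmax, or 10 microM where Cmax is unknown.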

[1] = second compound 0.00316 µM, first compound 0.0316 µM
[2] = second compound 0.00316 µM, first compound 0.1 µM
[3] = second compound 0.00316 µM, first compound 0.316 µM
[4] = second compound 0.00316 µM, first compound 1 µM
[5] = second compound 0.01 µM, first compound 0.0316 µM
[6] = second compound 0.01 µM, first compound 0.1 µM
[7] = second compound 0.01 µM, first compound 0.316 µM
[8] = second compound 0.01 µM, first compound 1 µM
[9] = second compound 0.0316 µM, first compound 0.0316 µM
[10] = second compound 0.0316 µM, first compound 0.1 µM
[11] = second compound 0.0316 µM, first compound 0.316 µM
[12] = second compound 0.0316 µM, first compound 1 µM
[13] = second compound 0.1 µM, first compound 0.0316 µM
[14] = second compound 0.1 µM, first compound 0.1 µM
[15] = second compound 0.1 µM, first compound 0.316 µM
[16] = second compound 0.1 µM, first compound 1 µM
[17] = second compound 0.316 µM, first compound 0.0316 µM
[18] = second compound 0.316 µM, first compound 0.1 µM
[19] = second compound 0.316 µM, first compound 0.316 µM
[20] = second compound 0.316 µM, first compound 1 µM
[21] = second compound 1 µM, first compound 0.0316 µM
[22] = second compound 1 µM, first compound 0.1 µM
[23] = second compound 1 µM, first compound 0.316 µM
[24] = second compound 1 µM, first compound 1 µM
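Also: spheroids exposed to agents for one week before readout.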
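For viability, T/C in this document: percent viability relative to DMSO vehicle control wells as 100%.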

**Q.** What does the source list for CCN1CCN(Cc2ccc(Nc3ncc(F)c(-c4cc(F)c5nc(C)n(C(C)C)c5c4)n3)nc2)CC1 + C=CC(=O)N1CCN(c2nc(OCC3CCCN3C)nc3c(F)c(-c4nc(N)cc(C)c4C(F)(F)F)c(Cl)cc23)C(C)C1?
**A.** IC50 (second compound 0.00316 µM): > 1 µM; IC50 (second compound 0.01 µM): > 1 µM; IC50 (second compound 0.0316 µM): > 1 µM; IC50 (second compound 0.1 µM): > 1 µM; IC50 (second compound 0.316 µM): > 1 µM; IC50 (second compound 1 µM): > 1 µM; viability, T/C (second compound 0.00316 µM, first compound 0.00316 µM): 109%; viability, T/C (second compound 0.00316 µM, first compound 0.01 µM): 110%; viability, T/C [1]: 101%; viability, T/C [2]: 95.8%; viability, T/C [3]: 83.5%; viability, T/C [4]: 76.2%; viability, T/C (second compound 0.01 µM, first compound 0.00316 µM): 96%; viability, T/C (second compound 0.01 µM, first compound 0.01 µM): 110%; viability, T/C [5]: 120%; viability, T/C [6]: 107%; viability, T/C [7]: 99.1%; viability, T/C [8]: 72.6%; viability, T/C (second compound 0.0316 µM, first compound 0.00316 µM): 116%; viability, T/C (second compound 0.0316 µM, first compound 0.01 µM): 126%; viability, T/C [9]: 106%; viability, T/C [10]: 113%; viability, T/C [11]: 84.8%; viability, T/C [12]: 72.8%; viability, T/C (second compound 0.1 µM, first compound 0.00316 µM): 107%; viability, T/C (second compound 0.1 µM, first compound 0.01 µM): 121%; viability, T/C [13]: 121%; viability, T/C [14]: 109%; viability, T/C [15]: 78.8%; viability, T/C [16]: 78.7%; viability, T/C (second compound 0.316 µM, first compound 0.00316 µM): 106%; viability, T/C (second compound 0.316 µM, first compound 0.01 µM): 103%; viability, T/C [17]: 120%; viability, T/C [18]: 105%; viability, T/C [19]: 89.4%; viability, T/C [20]: 73.4%; viability, T/C (second compound 1 µM, first compound 0.00316 µM): 98.5%; viability, T/C (second compound 1 µM, first compound 0.01 µM): 98.6%; viability, T/C [21]: 120%; viability, T/C [22]: 102%; viability, T/C [23]: 79%; viability, T/C [24]: 77.2%

**Q.** C[C@@H](NC(=O)c1ncnc(N)c1Cl)c1ncc(C(=O)Nc2cc(C(F)(F)F)c(Cl)cn2)s1 + C=CC(=O)N1CCN(c2nc(OCC3CCCN3C)nc3c(F)c(-c4nc(N)cc(C)c4C(F)(F)F)c(Cl)cc23)C(C)C1 was tested. Which IC50 (second compound 0.00316 µM) did it give?
**A.** > 10 µM

**Q.** What about the IC50 (second compound 0.01 µM) of the same molecule?
**A.** > 10 µM

**Q.** What about the IC50 (second compound 0.0316 µM) of the same molecule?
**A.** > 10 µM

**Q.** What about the IC50 (second compound 0.1 µM) of the same molecule?
**A.** > 10 µM

**Q.** And the IC50 (second compound 0.316 µM)?
**A.** > 10 µM

**Q.** And the IC50 (second compound 1 µM)?
**A.** > 10 µM

**Q.** What about the viability, T/C [1] of the same molecule?
**A.** 123%

**Q.** And the viability, T/C [2]?
**A.** 117%

**Q.** What about the viability, T/C [3] of the same molecule?
**A.** 115%

**Q.** And the viability, T/C [4]?
**A.** 119%

**Q.** And the viability, T/C (second compound 0.00316 µM, first compound 3.16 µM)?
**A.** 128%

**Q.** What about the viability, T/C (second compound 0.00316 µM, first compound 10 µM) of the same molecule?
**A.** 76.2%

**Q.** And the viability, T/C [5]?
**A.** 112%

**Q.** What about the viability, T/C [6] of the same molecule?
**A.** 116%

**Q.** What about the viability, T/C [7] of the same molecule?
**A.** 122%

**Q.** And the viability, T/C [8]?
**A.** 109%

**Q.** What about the viability, T/C (second compound 0.01 µM, first compound 3.16 µM) of the same molecule?
**A.** 119%

**Q.** And the viability, T/C (second compound 0.01 µM, first compound 10 µM)?
**A.** 100%

**Q.** What about the viability, T/C [9] of the same molecule?
**A.** 120%

**Q.** What about the viability, T/C [10] of the same molecule?
**A.** 113%

**Q.** What about the viability, T/C [11] of the same molecule?
**A.** 118%

**Q.** And the viability, T/C [12]?
**A.** 128%

**Q.** And the viability, T/C (second compound 0.0316 µM, first compound 3.16 µM)?
**A.** 127%

**Q.** What about the viability, T/C (second compound 0.0316 µM, first compound 10 µM) of the same molecule?
**A.** 86.2%

**Q.** What about the viability, T/C [13] of the same molecule?
**A.** 116%

**Q.** And the viability, T/C [14]?
**A.** 119%

**Q.** What about the viability, T/C [15] of the same molecule?
**A.** 123%

**Q.** What about the viability, T/C [16] of the same molecule?
**A.** 123%

**Q.** And the viability, T/C (second compound 0.1 µM, first compound 3.16 µM)?
**A.** 116%

**Q.** What about the viability, T/C (second compound 0.1 µM, first compound 10 µM) of the same molecule?
**A.** 111%

**Q.** What about the viability, T/C [17] of the same molecule?
**A.** 115%

**Q.** What about the viability, T/C [18] of the same molecule?
**A.** 107%

**Q.** What about the viability, T/C [19] of the same molecule?
**A.** 130%

**Q.** And the viability, T/C [20]?
**A.** 125%

**Q.** And the viability, T/C (second compound 0.316 µM, first compound 3.16 µM)?
**A.** 116%

**Q.** What about the viability, T/C (second compound 0.316 µM, first compound 10 µM) of the same molecule?
**A.** 118%

**Q.** What about the viability, T/C [21] of the same molecule?
**A.** 101%

**Q.** What about the viability, T/C [22] of the same molecule?
**A.** 103%

**Q.** And the viability, T/C [23]?
**A.** 120%

**Q.** And the viability, T/C [24]?
**A.** 128%

**Q.** What about the viability, T/C (second compound 1 µM, first compound 3.16 µM) of the same molecule?
**A.** 134%

**Q.** And the viability, T/C (second compound 1 µM, first compound 10 µM)?
**A.** 94.1%

From PubChem BioAssay AID2060897 (Molecular Pharmacology Branch, DTP, NCI, 2025)
